Source: patent US20060111305A1, “Metabolites of certain [1,4]diazepino[6,7,1-ij]quinoline derivatives and methods of preparation and use thereof” (Wyeth, priority 2004, published 2006)

Assays:
[1] = Rat fecal excretion and metabolite profiles after single oral 5 mg/kg [14C]DCDQ; format: in vivo, Sprague-Dawley rats; settings: male rats
Protocol: At sacrifice, blood samples were collected by cardiac puncture into tubes containing EDTA as the anticoagulant and placing them on ice. Aliquots of 50 μL were removed for combustion and determination of radioactivity content. Plasma was immediately obtained from the remaining blood by centrifugation at 4° C. Brains were excised after perfusion with 50 mL of chilled sterile saline. Urine samples were collected on dry ice at intervals of 0-8 and 8-24 hour post-dosing. Feces were collected at intervals of 0-8 and 8-24 hr post-dosing at room temperature and were homogenized as described previously. The biological specimens and aliquots of the dosing solution at pre- and post-dose were stored at approximately −70° C. until analyzed.
Brain and fecal samples were weighed and homogenized in water at volume-to-weight ratios of about 1:1 and 5:1, respectively. Blood aliquots (50 μL), brain homogenates (0.1 gram) and fecal homogenates (0.2 gram) were placed on Combusto-cones with Combusto-pads and combusted. A model 307 Tri-Carb Sample Oxidizer, equipped with an Oximate-80 Robotic Automatic Sampler (Perkin Elmer), was used for combustion. The liberated ^14CO2 was trapped with Carbo-Sorb E carbon dioxide absorber, mixed with PermaFluor® E+ liquid scintillation cocktail, and counted in a Tri-Carb Model 3100 TR/LL liquid scintillation counter (Perkin Elmer). The oxidation efficiency of the oxidizer was 98.2%.
(§1) Fecal homogenates were analyzed for metabolite profiles. Aliquots of 1 gram of fecal homogenates were mixed with 2 mL methanol, placed on ice for about 10 minutes and centrifuged. The supernatant was transferred to a clean tube. The residue was extracted three times with 2 mL of a water:methanol (3:7) mixture. The supernatants of each sample were combined, evaporated to about 1 mL, and centrifuged. Extraction efficiency was determined by analyzing aliquots of 10 μL of the supernatant for radioactivity. An aliquot (50-200 μL) of the supernatant was analyzed by HPLC with radioactivity flow detection for profiling. Samples were also analyzed by LC/MS to characterize the radioactive peaks.
A Waters model 2690 HPLC system (Waters Corp., Milford, Mass.) with a built-in autosampler was used for analysis. Separations were accomplished on a Phenomenex Luna C18(2) column (150×2.0 mm, 5 μm) (Phenomenex, Torrance, Calif.). The sample chamber of the autosampler was maintained at 4° C., while the column was at ambient temperature of about 20° C. A variable wavelength UV detector set to monitor 250 nm and a Flo-One β Model A525 radioactivity detector described above were used for data acquisition. The HPLC mobile phase consisted of 10 mM ammonium acetate, pH 4.5 (A) and methanol (B), and was delivered at 0.2 mL/min. […]

[2] = Dog fecal excretion and metabolite profiles after oral capsule of [14C]DCDQ; format: in vivo, beagle dogs
Protocol: Blood samples were collected from the jugular vein at 2, 4, 8, 24 and 48 hour after dose administration into tubes containing potassium EDTA as the anticoagulant and then placed on ice. Aliquots of 50 μL were removed for combustion and determination of radioactivity content. Plasma was immediately obtained from the remaining blood by centrifugation at 4° C. Urine samples were collected into tubes on dry ice at intervals of 0-8, 8-24 and 24-48 hour post-dose. Fecal samples were collected at intervals of 0-8, 8-24 and 24-48 hour post-dose at room temperature, and were homogenized. The biological specimens were stored at approximately −70° C. until analysis.
Feces were weighed and homogenized in water at a volume-to-weight ratio of about 5:1. Aliquots of blood (200 μL) and fecal homogenates (0.25-0.53 gram) were placed on Combusto-cones with Combusto-pads and combusted. A model 307 Tri-Carb sample oxidizer, equipped with an Oximate-80 robotic automatic sampler (Perkin Elmer), was used for combustion of blood and fecal samples. The liberated ^14CO2 was trapped with Carbo-Sorb E carbon dioxide absorber, mixed with PermaFluor® E+ liquid scintillation cocktail, and counted on a Tri-Carb Model 3100 TR/LL liquid scintillation counter (Perkin Elmer). The efficiency of combustion was 98.9%.
as §1, with “fecal homogenate” for “fecal homogenates”, “supernatants from” for “supernatants of”, “for metabolite profiles.” for “for profiling.”
A Waters model 2690 HPLC system (Waters Corp., Milford, Mass.) with a built-in autosampler was used for analysis. Separations were accomplished on a Phenomenex Luna C18(2) column (150×2.0 mm, 5 μm) (Phenomenex, Torrance, Calif.). The sample chamber of the autosampler was maintained at 4° C., while the column was at ambient temperature of about 20° C. A variable wavelength UV detector set to monitor 250 nm and a Flo-One β Model A525 radioactivity detector were used for data acquisition. The HPLC mobile phase consisted of 10 mM ammonium acetate, pH 4.5 (A) and acetonitrile (B), and was delivered at 0.2 mL/min. Chromatographic condition A was used for dose analysis, while condition B was used for analysis of urine and plasma, brain and fecal extracts.

Compound: c1cc2c3c(c1)[C@H]1CCC[C@H]1CN3CCNC2 [DCDQ, (9aR,12aS)-4,5,6,7,9,9a,10,11,12,12a-decahydro-cyclopenta[c][1,4]diazepine[6,7,1-ij]quinoline, reference compound]
- relative abundance in fecal extracts ([1]; 8-24 hour fecal extracts): only trace amounts

Compound: OC1[C@@H]2CCC[C@@H]2c2cccc3c2N1CCNC3 (some centres unmarked) [Metabolite M2, hydroxy DCDQ]
- metabolite detected in feces [2]: detected

Compound: O=C(O)[C@H]1O[C@@H](OC(=O)N2CCN3C[C@@H]4CCC[C@@H]4c4cccc(c43)C2)[C@H](O)[C@@H](O)[C@@H]1O [Metabolite M6, carbamoyl glucuronide of DCDQ]
- metabolite detected in feces [2]: not detected

Compound: c1cc2c3c(c1)[C@H]1CCC[C@H]1CN3CCNC2 [[^14C]DCDQ]
- dosed radioactivity in feces ([1]; 0-8 hour fecal samples): less than 0.1%
- dosed radioactivity recovered in feces ([1]; first 24 hours post-dosing): 21.1±2.1%
